These results are taken from US11248016B2, “Glycolipids and pharmaceutical compositions thereof for use in therapy” (THE UNIVERSITY OF NOTTINGHAM, priority 2014, dated 2022).

One assay relates to NLGN2 5′UTR. Kind of assay: NLGN translation reporter assay, neuroligin 2. It counts as cell-based, human. The conditions noted are these: equivalent treatment; FIG. 5 and FIG. 10. On the procedure:
(§1) The mechanism of action and level of activity of Formula II are consistent with and comparative to a proven translational inhibitor extracted from a rare coral species (Hippuristanol—a proven inhibitor of eIf4A). In this experiment 1 μM of Hippuristanol and 1.3 μM of Formula I was used
(§2) FIG. 10—Compound 46, NLGN Translation reporter assay.
Treatment with the compound of Formula II (and compound 46) (FIG. 5 and FIG. 10) selectively decrease the firefly luciferase signal from a reporter construct containing the NLGN1 5′UTR upstream of a firefly luciferase gene. The translation of luciferase reporters downstream of the NLGN1 5′UTR has been proven to be dependent on the activity of the translation initiation complex eIF4F (Gkogkas et al Nature 2013, 493:371-7)—a complex containing the helicase eIF4A. […]
(§3) Cells were transfected using FuGene 6 (Roche) following the manufacturer's instructions. The activities of firefly and renilla luciferase in lysates prepared from transfected cells were measured using a commercially available Luciferase reporter assay system (Promega) and light emission was measured over a 10 sec interval using a TECAN luminometer. […]
(A reporter such as luciferase makes a cellular process visible.)

The test system of assay [1] is epidermal growth factor receptor (EGFR) 5′UTR. Kind of assay: 5′UTR firefly luciferase reporter assay, EGFR. To be noted: Neuroblastoma cells; FIG. 3d. It counts as cell-based, human. On the procedure:
(§4) The 5′UTRs of genes which negatively associate with the progression of Alzheimer's disease—amyloid precursor protein (APP) and beta secretases (BACE) are all inhibited by treatment with a compound of Formula II, whereas the equivalent reporter levels of housekeeping genes actin and thioredoxin (TXN) are not inhibited. […] Neuroblastoma cells were transfected 24 hours prior to treatment with a compound of Formula II. After treatment, cells were prepared as described in the materials and methods. Each experiment represents between 6 and 8 biological repetitions.
After treatment with the compound of Formula II the levels of translation of a reporter construct containing the 5′UTR of amyloid precursor protein, which is processed into toxic amyloid the major constituent of amyloid plaques in Alzheimer's disease, is inhibited relative to equivalent control treatments. […]
as §3

The test system of assay [2] is CrPV IRES-dependent translation. Kind of assay: CrPV assay, IRES-dependent translation (Renilla luciferase). To be noted: 3 hours treatment. It counts as cell-based. The text has this: FIG. 12—CrPV assay—Natural molecule targets eIF4A.
By using a well characterised luciferase based reporter assay it was further determined that this class of molecule functions as a protein synthesis inhibitor via targeting the helicase eIF4A.

The test system of assay [3] is A549 lung carcinoma cells. Kind of assay: Cell proliferation, A549 (WST-1 / MTT). It counts as cell-based. Here is the method: Cisplatin™ resistant A549 lung cancer cells were sensitised to treatment with a compound of Formula II in combination with 1 μM Cisplatin™—a complete kill is achieved at higher doses of a compound of Formula II.
Cells were treated with a range of doses of active for either 48 or 96 hrs. Each data point is representaive of at least 4 biological repetitions.
Cells were treated with either 2 μM Cisplatin™ alone, c. 1 μg active alone or c. 1 μg active in combination with 2 μM Cisplatin™. A WST-1 cell proliferation assay was performed 96 hrs after treatment. Experiment represents 4 independent biological repetitions.
A WST-1 cell proliferation assay was performed 72 hrs after treatment. Experiment represents 4 independent biological repetitions.
Cells were treated with either 2 μM or 10 μM Cisplatin™ alone, or 10 μg synthetic molecule Formula II in combination with 2 μM Cisplatin™. A WST-1 cell proliferation assay was performed 72 hrs after treatment. Experiment represents 4 independent biological repetitions. A 5-fold increase in the efficacy of Cisplatin™ is observed when treated in combination with the synthetic Formula II.
Cells were treated with either 2 μM, 5 μM or 10 μM Cisplatin™ alone, 50 μg synthetic acetyl derivative molecule or 30 μg in combination with 2 μM Cisplatin™. A WST-1 cell proliferation assay was performed 72 hrs after treatment. Experiment represents four independent biological repetitions. No effect was detected after treatment with 50 μg synthetic acetyl derivative, however an 8-fold increase in the efficacy of Cisplatin™ is observed when treated in combination with 30 μg synthetic acetyl derivative and […] Cisplatin™.
FIG. 11—Natural molecule plus cisplatin compared to Hippuristanol plus cisplatin. […] The ratio between anti-proliferative activity to chemo sensitizing activity is also equivalent.
FIG. 13—Dose curves of compounds 46, 99 and 123. […] Cells were treated with a range of doses of active for 96 hrs. Each data point is representative of at least 4 biological repetitions and error=s.e.m).
FIG. 14—Cisplatin™ combination experiments—Compounds 46, 99 and 123. […] Cells were treated with a range of doses of active in combination with a range of doses of Cisplatin™ for 96 hrs. Each data point is representative of at least 4 biological repetitions and error=s.e.m).
(§5) Prior to treatment cells were cultured to an appropriate confluency in 96 well tissue culture plates (Fisher). Cells remained either supplemented with fresh media or treated with fresh media containing active or an equivalent volume of DMSO (vehicle control). Where used, Cisplatin™ was diluted to a stock concentration in Dimethylformamide (DMF), then handled as per the manufacturer's instructions. To determine relative cell viability, reagents WST-1 (Roche) or MTT (Sigma) were used as per the manufacturer's instructions and absorbance at 450 nm measured using a Victor plate reader (Perkin Elmer).
Background: Tetrazolium assays rely on reduction of a dye to a coloured formazan, in cell work by metabolically active cells.

Assay [4] has as its system breast cancer cells MDA-MB-231. As to the kind of experiment: Cell proliferation, MDA-MB-231. It counts as cell-based. To be noted: 96 hours, Formula II only. On the procedure:
Growth of MDA-MB-231 cell lines were slowed by the treatment with a compound of Formula II. Experiment represents 6 biological repetitions, Error=S.E.M.
as §5

Another assay deals with actin 5′UTR. Kind of assay: 5′UTR firefly luciferase reporter assay, actin. The assay is classed as cell-based, human. The conditions noted are these: Neuroblastoma cells; FIG. 3d. Here is the method:
as §4
(§6) Experiments conducted using Firefly luciferase reporter plasmids containing the 5′ untranslated regions (UTRs) of the genes amyloid precursor protein (APP), thioredoxin (TXN) were conducted with reagents and materials described by Bottley et al, 2010. Experiments conducted using Firefly luciferase reporter plasmids containing the 5′ UTRs of the genes EGFR, BACE1 and Actin were conducted with reagents and materials described by Webb, 2012 (http://etheses.nottingham.ac.uk/2724/). […]
as §3

A further assay concerns NLGN1 5′UTR. Kind of assay: NLGN translation reporter assay, neuroligin 1. It counts as cell-based, human. The conditions noted are these: FIG. 5: 1 μM Hippuristanol, 1.3 μM compound; FIG. 10: compound 46. Here is the method:
as §1, §2
Direct evidence is provided that inhibiting eIF4A represents a new route to treating ASD based on the data presented by Gkogkas et al. Nature 2013, 493:371-7.
Treatment with the compound of Formula II (and compound 46) (FIG. 5 and FIG. 10) selectively decrease the firefly luciferase signal from a reporter construct containing the NLGN1 5′UTR upstream of a firefly luciferase gene. The translation of luciferase reporters downstream of the NLGN1 5′UTR has been proven to be dependent on the activity of the translation initiation complex eIF4F (Gkogkas et al Nature 2013, 493:371-7)—a complex containing the helicase eIF4A. Equivalent treatment had little effect on the signal generated from either a co-transfected renilla luciferase reporter control or cells transfected with an equivalent construct containing the NLGN2 5′UTR upstream of a firefly luciferase gene (FIG. 5 and FIG. 10).
as §6, §3

Entries after “also recorded” stand apart in the source; their conditions may differ.

For `CC/C=C\C/C=C\C/C=C\CCCCCCCC(=O)OC[C@H](COC1OC(CO)C(O)C(O)C1O)OC(=O)CCCCCCC/C=C\C/C=C\C/C=C\CC` (stereo partly drawn) [Formula II, 1,2-dioctadecatienyl-3-O-β-D-galactosyl-sn-glycerol], the “signal of NLGN2 5′UTR firefly luciferase reporter” value in the assay on NLGN2 5′UTR is listed as “little effect”. Besides, in assay [1], the “firefly luciferase reporter activity, EGFR 5′UTR” value is recorded as “selectively inhibited; also recorded: significant inhibition (p=0.005)”. For the same compound, the “CrPV IRES-dependent translation (Renilla luciferase signal)” value in assay [2] is recorded as “but not CrPV IRES-dependent translation (Renilla luciferase signal), was inhibited”. In addition, in assay [3] (10 μg synthetic Formula II plus 2 μM Cisplatin, WST-1, 72 hrs, FIG. 9b), the “increase in the efficacy of Cisplatin” value turned out to be 5 fold. For the same compound, the “kill of A549 cells in combination with Cisplatin” value in assay [3] (96 hours, plus 1 μM Cisplatin, higher doses of Formula II) is on record as “complete kill”. The “anti-proliferative activity on A549 cells” value in assay [3] (alone, FIG. 11) is “anti-proliferative”. The “efficacy of Cisplatin on A549 cells in combination” value in assay [3] (c. 1 μg active plus 2 μM Cisplatin, WST-1, 96 hrs, FIG. 7) was “significant increase in the efficacy”. Further, the “sensitizing effect to Cisplatin on A549 cells” value in assay [3] (in combination with Cisplatin (2 μM), FIG. 11) is “equivalent to hippuristanol”. For the same compound, the “growth of A549 cells” value in assay [3] (range of doses, 48 or 96 hrs, WST-1 and MTT, compound purified from natural source, FIG. 6) is recorded as “inhibits the growth”. Moreover, in assay [3] (synthetic Formula II, WST-1, 72 hrs, FIG. 9a), the “A549 cell growth, synthetic molecule” value is listed as “inhibited by Formula II in a dose dependent manner”. In addition, the “growth of MDA-MB-231 cells” value in assay [4] was “slowed”. The “firefly luciferase reporter levels, actin 5′UTR” value in the assay on actin 5′UTR was “not inhibited”. In addition, the “translation of NLGN1 5′UTR firefly luciferase reporter relative to neuroligin 2” value with NLGN1 5′UTR is listed as “selectively reduces the translation”.
